Laboratory results from ChEMBL document CHEMBL5357048, “A survey of stapling methods to increase affinity, activity, and stability of ghrelin analogues” (RSC Med Chem, 2024).

Legend:
[1] = biological target: T1, Growth hormone secretagogue receptor type 1 (Homo sapiens, UniProt Q92847); test: Displacement of [125I]ghrelin from GHSR1a in HEK293 cells by competitive binding assay; type: cell-based
[2] = biological target: T1, Growth hormone secretagogue receptor type 1; test: Agonist activity at eYFP/RLuc-tagged GHSR1a (unknown origin) transfected in HEK293 cells assessed as beta-arrestin 1 recruitment incubated for 20 mins by BRET assay; type: functional, cell-based
[3] = biological target: T1, Growth hormone secretagogue receptor type 1; test: Displacement of […] [125I]-ghrelin from eYFP-labelled GHSR1a (unknown origin) transfected in HEK293 cells incubated for 20 mins by radioligand binding assay; type: cell-based
[4] = biological target: T1, Growth hormone secretagogue receptor type 1; test: Agonist activity at eYFP/RLuc-tagged GHSR1a (unknown origin) transfected in HEK293 cells assessed as beta-arrestin 2 recruitment incubated for 20 mins by BRET assay; type: functional, cell-based

T1 sequence (Q92847 whole entry): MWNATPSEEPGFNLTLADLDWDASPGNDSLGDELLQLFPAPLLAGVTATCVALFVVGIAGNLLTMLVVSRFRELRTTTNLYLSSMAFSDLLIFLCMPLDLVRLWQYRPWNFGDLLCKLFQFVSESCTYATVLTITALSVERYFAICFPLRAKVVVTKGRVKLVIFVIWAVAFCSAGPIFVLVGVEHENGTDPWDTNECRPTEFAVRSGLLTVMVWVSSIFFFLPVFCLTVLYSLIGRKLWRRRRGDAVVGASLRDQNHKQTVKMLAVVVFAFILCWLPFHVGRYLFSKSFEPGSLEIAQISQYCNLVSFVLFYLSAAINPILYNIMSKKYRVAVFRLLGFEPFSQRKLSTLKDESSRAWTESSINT

IC50 [1]	EC50 [2]	IC50 [3]	EC50 [4]	Structure (SMILES)
7.9 nM	–	–	–	CCCCCCCC(=O)OC[C@H](NC(=O)[C@H](CO)NCC(N)=O)C(=O)N[C@@H](Cc1ccccc1)C(=O)N[C@@H](CC(C)C)C(=O)N[C@@H](CO)C(=O)N1CCC[C@H]1C(=O)N[C@@H](CCC(=O)O)C(=O)N[C@@H](Cc1c[nH]cn1)C(=O)N[C@@H](CCC(N)=O)C(=O)N[C@@H](CCCNC(=N)N)C(=O)N[C@H](C(=O)N[C@@H](CCC(N)=O)C(=O)N[C@@H](CCC(N)=O)C(=O)N[C@@H](CCCNC(=N)N)C(=O)N[C@@H](CCCCN)C(=O)N[C@@H](CCC(=O)O)C(=O)N[C@@H](CO)C(=O)N[C@@H](CCCCN)C(=O)N[C@@H](CCCCN)C(N)=O)C(C)C
–	77.2 nM	1.44 nM	114 nM	CCCCCCCC(=O)OC[C@H](NC(=O)[C@H](CO)NCC(N)=O)C(=O)N[C@@H](Cc1ccccc1)C(=O)N[C@@H](CC(C)C)C(=O)N[C@@H](CO)C(=O)N1CCC[C@H]1C(=O)N[C@@H](CCC(=O)O)C(=O)N[C@@H](Cc1c[nH]cn1)C(=O)N[C@@H](CCC(N)=O)C(=O)N[C@@H](CCCNC(=N)N)C(=O)N[C@@]1(C)CCC/C=C\CCC[C@@](C)(C(=O)N[C@@H](CCC(=O)O)C(=O)N[C@@H](CO)C(=O)N[C@@H](CCCCN)C(=O)N[C@@H](CCCCN)C(=O)O)NC(=O)[C@H](CCCNC(=N)N)NC(=O)[C@H](CCC(N)=O)NC(=O)[C@H](CCC(N)=O)NC1=O
–	91.7 nM	4.93 nM	71.6 nM	CCCCCCCC(=O)OC[C@H](NC(=O)[C@H](CO)NCC(N)=O)C(=O)N[C@@H](Cc1ccccc1)C(=O)N[C@@H](CC(C)C)C(=O)N[C@@H](CO)C(=O)N1CCC[C@H]1C(=O)N[C@@H](CCC(=O)O)C(=O)N[C@@H](Cc1c[nH]cn1)C(=O)N[C@@H](CCC(N)=O)C(=O)N[C@@H](CCCNC(=N)N)C(=O)N[C@H]1CSCc2ccc(cc2)CSC[C@@H](C(=O)N[C@@H](CCC(=O)O)C(=O)N[C@@H](CO)C(=O)N[C@@H](CCCCN)C(=O)N[C@@H](CCCCN)C(=O)O)NC(=O)[C@H](CCCNC(=N)N)NC(=O)[C@H](CCC(N)=O)NC(=O)[C@H](CCC(N)=O)NC1=O
